Measurements: the supplement of paper PMC4862054
Values joined by “and” are separate entries in the source; they are usually repeats but may differ in a detail not shown here. Equal values may be shown once.

Columns and labels:
Details in all cases: incubation time: 72 h
[1] = system: CAL-85-1; test: normalised viability (% of control), CellTiter-Blue; higher = more viable cells (about 100 = DMSO control)
Experimental: (§1)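 DSRT, CellTiter-Blue viability, 72 h incubation. Signal is normalised to DMSO and benzethonium chloride controls. Value is the normalised response at dose 9.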

[2] = system: DU-4475; test: as above
Experimental: as §1

[3] = system: MDA-MB-453; test: as above
Experimental: as §1

[4] = system: HDQ-P1; test: as above
Experimental: as §1

[5] = system: CAL-148; test: as above
Experimental: as §1

[6] = system: CAL-51; test: as above
Experimental: as §1

[7] = system: BT-549; test: normalised response (% of control), CellTiter-Glo; higher = more viable cells (100 = DMSO, 0 = benzethonium chloride kill control)
Experimental: (§2)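 DSRT, 72 h incubation, CellTox Green / CellTiter-Glo readout. Signal is normalised to DMSO and benzethonium chloride controls. Value is the normalised response at the highest dose.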

[8] = system: SK-BR-3; test: as above
Experimental: as §2

[9] = system: CAL-120; test: as above
Experimental: as §2

[10] = system: DU-4475; test: as above
Experimental: as §2

[11] = system: BT-474; test: as above
Experimental: as §2

[12] = system: MDA-MB-436; test: as above
Experimental: as §2

[13] = system: CAL-51; test: as above
Experimental: as §2

[14] = system: MDA-MB-468; test: as above
Experimental: as §2

[15] = system: HCC1599; test: as above
Experimental: as §2

[16] = system: MFM-223; test: as above
Experimental: as §2

[17] = system: CAL-85-1; test: normalised viability (% of control), CellTiter-Blue; higher = more viable cells (about 100 = DMSO control); remark: listed apart in the source
Experimental: (§3)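 DSRT, CellTiter-Blue viability, 72 h incubation. Signal is normalised to DMSO and benzethonium chloride controls. Value is the normalised response at dose 7.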

[18] = system: DU-4475; test: as above; remark: listed apart in the source
Experimental: as §3

[19] = system: MDA-MB-453; test: as above; remark: listed apart in the source
Experimental: as §3

[20] = system: HDQ-P1; test: as above; remark: listed apart in the source
Experimental: as §3

[21] = system: CAL-148; test: as above; remark: listed apart in the source
Experimental: as §3

[22] = system: CAL-51; test: as above; remark: listed apart in the source
Experimental: as §3

SMILES | normalised viability [1] | normalised viability [2] | normalised viability [3] | normalised viability [4] | normalised viability [5] | normalised viability [6] | normalised response [7] | normalised response [8] | normalised response [9] | normalised response [10] | normalised response [11] | normalised response [12] | normalised response [13] | normalised response [14] | normalised response [15] | normalised response [16] | normalised viability [17] | normalised viability [18] | normalised viability [19] | normalised viability [20] | normalised viability [21] | normalised viability [22]
CNC(=O)c1ccccc1Sc1ccc2c(/C=C/c3ccccn3)n[nH]c2c1 [Axitinib] (10000 nM) | 67.2% | 21.1% | 46.2% | 67.3% | 42.1% | 37.3% | 49.7% | 77% | 75.8% | 76% | 80.4% | 64.1% | 38.6% | 24.5% | 69% | 49.3% |  |  |  |  |  | 
CCNC(=O)c1noc(-c2cc(C(C)C)c(O)cc2O)c1-c1ccc(CN2CCOCC2)cc1 [NVP-AUY922] (100 nM) |  |  |  |  |  |  |  |  |  |  |  |  |  |  |  |  | 28.6% | 0.71% | 8.47% | 31.8% | 15.9% | 10.1%
C/C(=C\c1csc(C)n1)[C@@H]1C[C@@H]2O[C@]2(C)CCC[C@H](C)[C@H](O)[C@@H](C)C(=O)C(C)(C)[C@@H](O)CC(=O)N1 [Ixabepilone] (1000 nM) | 36.9% | 21.5% | 5.47% | 37% | 20.9% | 57.9% | 20.8% | 104% | 98% | 100% | 41.9% | 103% | 23.7% | 23% | 115% | 101% |  |  |  |  |  | 
CO[C@@H]1[C@H](N(C)C(=O)c2ccccc2)C[C@H]2O[C@]1(C)n1c3ccccc3c3c4c(c5c6ccccc6n2c5c31)C(=O)NC4 [Midostaurin] (10000 nM) | 78.9% | 3.76% | 61.4% | 80.1% | 86.3% | 4.73% | 4.02% | 45.2% | 46.2% | 34.1% | 41.7% | 68.8% | 11.5% | 29.4% | 102% | 66.5% |  |  |  |  |  | 
CO[C@@H]1[C@H](N(C)C(=O)c2ccccc2)C[C@H]2O[C@]1(C)n1c3ccccc3c3c4c(c5c6ccccc6n2c5c31)C(=O)NC4 [Midostaurin] (1000 nM) |  |  |  |  |  |  |  |  |  |  |  |  |  |  |  |  | 81.1% | 8.53% | 67.9% | 52.8% | 82.2% | 14.5%
CO[C@@]12[C@H](COC(N)=O)C3=C(C(=O)C(C)=C(N)C3=O)N1C[C@@H]1N[C@@H]12 [Mitomycin C] (1000 nM) |  |  |  |  |  |  |  |  |  |  |  |  |  |  |  |  | 77.2% | 95.6% | 91.4% | 88.9% | 96.3% | 108%
Cn1cc(C2=C(c3cn(C4CCN(Cc5ccccn5)CC4)c4ccccc34)C(=O)NC2=O)c2ccccc21 [Enzastaurin] (1000 nM) |  |  |  |  |  |  |  |  |  |  |  |  |  |  |  |  | 83.7% | 91.7% | 62.8% | 81.2% | 73% | 90.4%
COc1ccc(S(=O)(=O)Nc2cccnc2Nc2ccc(O)cc2)cc1 [ABT-751] (1000 nM) |  |  |  |  |  |  |  |  |  |  |  |  |  |  |  |  | 32.3% | 66.1% | 25.2% | 51.3% | 52.5% | 39.7%
CC(C)(C)NC(=O)[C@H]1CC[C@H]2[C@@H]3CC[C@H]4NC(=O)C=C[C@]4(C)[C@H]3CC[C@]12C [Finasteride] (1000 nM) |  |  |  |  |  |  |  |  |  |  |  |  |  |  |  |  | 98.4% | 113% | 106% | 118% | 103% | 109%
C=CCn1c(=O)c2cnc(Nc3ccc(N4CCN(C)CC4)cc3)nc2n1-c1cccc(C(C)(C)O)n1 [MK1775] (1000 nM) |  |  |  |  |  |  |  |  |  |  |  |  |  |  |  |  | 40.5% | 32.2% | 23.2% | 47.8% | 9.04% | 16.6%
CC1(C)CCC(c2ccc(Cl)cc2)=C(CN2CCN(c3ccc(C(=O)NS(=O)(=O)c4ccc(N[C@H](CCN5CCOCC5)CSc5ccccc5)c(S(=O)(=O)C(F)(F)F)c4)cc3)CC2)C1 [Navitoclax] (1000 nM) |  |  |  |  |  |  |  |  |  |  |  |  |  |  |  |  | 81.2% | 40.2% | 75.5% | 68.2% | 80.1% | 97.6%
CC(C)C[C@H](NC(=O)[C@@H](COC(C)(C)C)NC(=O)[C@H](Cc1ccc(O)cc1)NC(=O)[C@H](CO)NC(=O)[C@H](Cc1c[nH]c2ccccc12)NC(=O)[C@H](Cc1cnc[nH]1)NC(=O)[C@@H]1CCC(=O)N1)C(=O)N[C@@H](CCCNC(=N)N)C(=O)N1CCC[C@H]1C(=O)NNC(N)=O [Goserelin] (1000 nM) |  |  |  |  |  |  |  |  |  |  |  |  |  |  |  |  | 93.2% | 102% | 96% | 96.9% | 97.1% | 108%
Cc1cn(-c2cc(NC(=O)c3ccc(C)c(Nc4nccc(-c5cccnc5)n4)c3)cc(C(F)(F)F)c2)cn1 [Nilotinib] (1000 nM) |  |  |  |  |  |  |  |  |  |  |  |  |  |  |  |  | 84.7% and 89.2% | 113% and 98.9% | 88.3% and 97.5% | 91.7% and 81.1% | 93.5% and 93.9% | 107% and 117%
Nc1ccn([C@@H]2O[C@H](CO)[C@@H](O)C2(F)F)c(=O)n1 [Gemcitabine] (100 nM) |  |  |  |  |  |  |  |  |  |  |  |  |  |  |  |  | 49.8% | 45.1% | 48.3% | 92.3% | 33.7% | 16.3%
O=C(CCCCCCC(=O)Nc1ccccc1)NO [Vorinostat] (1000 nM) |  |  |  |  |  |  |  |  |  |  |  |  |  |  |  |  | 84% and 86.3% | 103% and 97.4% | 51.6% and 54.1% | 80.8% and 62.8% | 83.7% and 89.3% | 107% and 99.4%
